We go through 13 molecules from patent US8906925B2, “Pyrido[4,3-B]indoles containing rigid moieties” (Medivation Technologies, Inc., priority 2008, dated 2014).

For one test, the target named is histamine receptor H1 (Homo sapiens, UniProt P35367). The test is described as follows: Histamine H1 radioligand binding ([3H]Pyrilamine). The settings on record: for inhibition at 1 µM: read-out: Histamine Binding (1 μM) H1, percent inhibition of specific binding, 1 μM. A digest of the protocol:
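Values are percent inhibition of specific [3H]pyrilamine (1.2 nM) binding with compounds at ≤1 μM (1% DMSO vehicle); 180 min incubation at 25 °C, pH 7.4 Tris buffer, on CHO-expressed human H1 receptor; 1 μM pyrilamine defined nonspecific binding, bound ligand counted after filtration.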

Test [1] addresses human dopamine D2L receptor (Homo sapiens, UniProt P14416). The test is described as follows: Dopamine D2L radioligand binding ([3H]Spiperone). Particulars: compound at 1 μM; for Inhibition of ligand binding, Dopamine D2L: 1 µM. From the text:
Non-specific binding was estimated in the presence of […] Haloperidol. Receptor proteins were filtered and washed, the filters were then counted to determine [^3H]Spiperone specifically bound. […] Biochemical assay results are presented as the percent inhibition of specific binding in Table 9.

Test [2] deals with T1, human recombinant serotonin (5-Hydroxytryptamine) 5-HT6 receptor (Homo sapiens, UniProt P50406).
T1 construct: expressed in transfected cells; host or cells: human HeLa cells
The experiment in a line: Serotonin 5-HT6 radioligand binding ([3H]LSD). The settings on record: for inhibition at 1 µM / inhibition at 0.1 µM: read-out: Inhibition of ligand binding, Serotonin 5-HT6 (percent inhibition of specific binding); for inhibition at 0.1 µM: compound at 0.1 μM. As to the method: Compounds of the invention were incubated with 1.5 nM [3H]Lysergic acid diethylamide (LSD) for 120 min. at 37° C. […] Receptor proteins were filtered and washed, the filters were then counted to determine [3H]LSD specifically bound. Compounds were screened at 1 μM or lower, using 1% DMSO as vehicle. Biochemical assay results are presented as the percent inhibition of specific binding in Table 10.

In test [3] the target is T2, human recombinant adrenergic α2A receptor (Homo sapiens, UniProt P08913).
T2 construct: expressed in transfected cells; host or cells: insect Sf9 cells
T2 sequence (P08913 1-465): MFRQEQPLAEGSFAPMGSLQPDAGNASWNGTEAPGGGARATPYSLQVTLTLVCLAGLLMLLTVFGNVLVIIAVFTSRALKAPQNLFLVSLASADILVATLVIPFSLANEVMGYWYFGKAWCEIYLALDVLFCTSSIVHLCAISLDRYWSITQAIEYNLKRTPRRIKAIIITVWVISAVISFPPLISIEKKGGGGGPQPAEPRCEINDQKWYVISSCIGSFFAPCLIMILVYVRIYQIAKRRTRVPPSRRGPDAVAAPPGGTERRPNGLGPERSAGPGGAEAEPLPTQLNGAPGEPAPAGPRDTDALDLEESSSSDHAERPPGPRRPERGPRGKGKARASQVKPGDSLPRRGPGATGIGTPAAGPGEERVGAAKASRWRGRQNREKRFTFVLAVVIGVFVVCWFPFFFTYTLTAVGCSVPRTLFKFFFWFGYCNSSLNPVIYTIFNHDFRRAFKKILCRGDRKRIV
The experiment in a line: Adrenergic α2A radioligand binding ([3H]MK-912). The settings on record: compound at 1 μM. A digest of the protocol: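 Sf9-expressed human receptor in 50 mM Tris-HCl pH 7.4, 12.5 mM MgCl2, 2 mM EDTA; compounds at 1 μM or lower (1% DMSO) incubated with 1 nM [3H]MK-912 for 60 min at 25° C. Non-specific binding defined with 10 μM WB-4101; filtered bound radioactivity counted, reported as percent inhibition of specific binding.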

Test [4] concerns the target T3, human recombinant adrenergic α2B receptor (Homo sapiens, UniProt P18089).
T3 construct: expressed in transfected cells; host or cells: Chinese hamster ovary (CHO-K1) cells
T3 sequence (P18089 1-450): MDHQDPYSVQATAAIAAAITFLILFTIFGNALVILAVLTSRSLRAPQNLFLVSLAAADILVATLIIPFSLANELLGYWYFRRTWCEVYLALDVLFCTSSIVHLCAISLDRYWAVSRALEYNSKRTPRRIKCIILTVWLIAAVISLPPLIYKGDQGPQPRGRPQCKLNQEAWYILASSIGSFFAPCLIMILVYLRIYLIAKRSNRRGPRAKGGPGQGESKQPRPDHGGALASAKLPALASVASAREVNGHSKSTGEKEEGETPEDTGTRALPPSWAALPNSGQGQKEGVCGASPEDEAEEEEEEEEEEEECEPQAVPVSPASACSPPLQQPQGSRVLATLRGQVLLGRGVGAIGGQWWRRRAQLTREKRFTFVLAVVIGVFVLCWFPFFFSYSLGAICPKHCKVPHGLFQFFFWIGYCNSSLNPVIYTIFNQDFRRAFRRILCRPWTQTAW
The test is described as follows: Adrenergic α2B radioligand binding ([3H]Rauwolscine). Particulars: compound at 1 μM. A digest of the protocol:
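Membranes from CHO-K1 cells expressing the receptor were incubated with 2.5 nM [3H]Rauwolscine for 60 min at 25 °C in Tris-HCl buffer pH 7.4 with MgCl2, EDTA and BSA. Non-specific binding was defined with 10 μM prazosin. Compounds were tested at ≤1 μM in 1% DMSO and read out as % inhibition of specific binding after filtration.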

Where [5] appears, read: percent inhibition of specific binding, read-out: Inhibition of ligand binding, Dopamine D2L.
Setting [6] is: percent inhibition of specific binding, read-out: Inhibition of ligand binding, Adrenergic α2A.
The mark [7] stands for this setting: percent inhibition of specific binding, read-out: Inhibition of ligand binding, Adrenergic α2B.
Where [8] appears, read: percent inhibition of specific binding.

The structures appear in SMILES notation. “And” between values parts separate entries of the source, which are not always exact repeats. Identical values can stand only once. Like-named read-outs stand apart in the source and are kept apart here.

T1 sequence (P50406 whole entry): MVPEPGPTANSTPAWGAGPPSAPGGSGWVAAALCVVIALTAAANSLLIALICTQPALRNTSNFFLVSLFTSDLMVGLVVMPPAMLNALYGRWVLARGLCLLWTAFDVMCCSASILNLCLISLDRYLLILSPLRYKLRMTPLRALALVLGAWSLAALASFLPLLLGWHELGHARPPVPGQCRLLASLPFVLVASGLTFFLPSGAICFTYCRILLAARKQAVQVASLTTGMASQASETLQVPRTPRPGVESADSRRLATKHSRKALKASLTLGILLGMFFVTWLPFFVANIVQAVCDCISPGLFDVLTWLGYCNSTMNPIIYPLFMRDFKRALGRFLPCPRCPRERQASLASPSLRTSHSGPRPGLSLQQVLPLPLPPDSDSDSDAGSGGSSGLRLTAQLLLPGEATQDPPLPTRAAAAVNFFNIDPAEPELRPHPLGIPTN
Sequence of histamine receptor H1 (P35367 whole entry): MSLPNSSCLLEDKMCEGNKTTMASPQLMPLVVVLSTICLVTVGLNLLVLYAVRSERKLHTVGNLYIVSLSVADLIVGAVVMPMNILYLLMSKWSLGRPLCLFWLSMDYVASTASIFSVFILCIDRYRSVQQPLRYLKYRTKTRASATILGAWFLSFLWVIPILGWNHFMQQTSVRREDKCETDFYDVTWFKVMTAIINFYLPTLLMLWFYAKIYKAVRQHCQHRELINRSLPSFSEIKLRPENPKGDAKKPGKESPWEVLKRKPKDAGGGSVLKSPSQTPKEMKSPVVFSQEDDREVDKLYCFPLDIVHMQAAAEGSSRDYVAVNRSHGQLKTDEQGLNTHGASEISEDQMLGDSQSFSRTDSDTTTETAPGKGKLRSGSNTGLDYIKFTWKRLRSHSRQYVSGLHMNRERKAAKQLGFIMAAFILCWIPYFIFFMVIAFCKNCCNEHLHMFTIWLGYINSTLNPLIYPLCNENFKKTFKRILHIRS
Sequence of human dopamine D2L receptor (P14416 whole entry): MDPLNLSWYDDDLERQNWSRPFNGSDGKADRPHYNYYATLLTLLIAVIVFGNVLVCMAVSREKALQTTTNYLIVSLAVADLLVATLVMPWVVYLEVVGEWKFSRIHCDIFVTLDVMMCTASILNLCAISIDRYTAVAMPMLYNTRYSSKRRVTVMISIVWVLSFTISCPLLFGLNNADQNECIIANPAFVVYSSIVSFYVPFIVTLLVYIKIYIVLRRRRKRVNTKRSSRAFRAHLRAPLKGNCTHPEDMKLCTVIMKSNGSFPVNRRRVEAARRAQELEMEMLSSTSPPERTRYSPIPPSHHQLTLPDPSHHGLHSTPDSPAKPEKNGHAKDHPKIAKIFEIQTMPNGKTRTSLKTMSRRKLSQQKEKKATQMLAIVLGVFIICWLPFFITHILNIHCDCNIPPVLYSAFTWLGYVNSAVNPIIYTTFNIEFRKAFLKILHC

In general, inhibition refers to the drop in the measured response relative to a control, in per cent. As to `CN1CCc2c(c3cc(Cl)ccc3n2CC(C)(O)c2ccncc2)C1` (stereo not shown) [Compound 63, 1-(8-chloro-1,2,3,4-tetrahydro-2-methylpyrido[4,3-b]indol-5-yl)-2-(pyridin-4-yl)propan-2-ol], the inhibition at 1 µM at histamine receptor H1 turned out to be 46%; in test [1] (setting [5]) it was 17%; in test [2] (compound at 1 μM) it was 73%; in test [3] (setting [6]), 74%; in test [4] (setting [7]), 101%.

Take `CNC(=O)C/C(=C\n1c2c(c3cc(C)ccc31)CN(C)CC2)c1ccc(F)cc1` [Compound 207, (E)-4-(2,8-dimethyl-3,4-dihydro-1H-pyrido[4,3-b]indol-5(2H)-yl)-3-(4-fluorophenyl)-N-methylbut-3-enamide]: the inhibition at 1 µM on histamine receptor H1 is 15%; in test [1] (setting [5]) it was 12%; in test [2] (compound at 1 μM), 58%; in test [3] (setting [6]) it was 86%; in test [4] (setting [7]) it was 80%.

With `CCC(O)(Cn1c2c(c3cc(C)ccc31)CN(C)CC2)c1ccc(F)cc1` (stereo not shown) [Compound 175, 1-(2,8-dimethyl-3,4-dihydro-1H-pyrido[4,3-b]indol-5(2H)-yl)-2-(4-fluorophenyl)butan-2-ol], the inhibition at 1 µM worked out at 71% at histamine receptor H1; 24% in test [1] (setting [5]); 100% in test [2] (compound at 1 μM); 94% in test [3] (setting [6]); 96% in test [4] (setting [7]).

`Cc1ccc2c(c1)c1c(n2C#Cc2ccc(C)nc2)CCN(C)C1` [Compound No. 476, 2,8-dimethyl-5-((6-methylpyridin-3-yl)ethynyl)-2,3,4,5-tetrahydro-1H-pyrido[4,3-b]indole]: the inhibition at 1 µM on histamine receptor H1 worked out at 27%; in test [1] ([…] [3H]Spiperone, read-out: Inhibition of ligand binding, Dopamine D2L (percent inhibition of specific binding)), 19%; in test [3] (read-out: Inhibition of ligand binding, Adrenergic α2A (percent inhibition of specific binding)), 96%; in test [4] ([…] [3H]Rauwolscine, read-out: Inhibition of ligand binding, Adrenergic α2B (percent inhibition of specific binding)), 87%. In addition, in test [2] (compound at 1 μM, 1 µM), the “Inhibition of ligand binding, Serotonin 5-HT6 (percent inhibition of specific binding)” value is 64% and 86%.

`C/C(=C\n1c2c(c3cc(Cl)ccc31)CN(C)CC2)c1ccc(Cl)cc1` [Compound 100, (E)-8-chloro-5-(2-(4-chlorophenyl)prop-1-enyl)-2,3,4,5-tetrahydro-2-methyl-1H-pyrido[4,3-b]indole]: at histamine receptor H1, the “Histamine Binding (1 μM) H1, percent inhibition of specific binding” value was found to be 67%. Further, the inhibition at 1 µM stood at 65% at histamine receptor H1; 67% in test [1] (setting [5]); 95% in test [2] (compound at 1 μM); 101% in test [3] (setting [6]); 97% in test [4] (setting [7]). Besides, the “Inhibition of ligand binding, Dopamine D2L” value in test [1] (setting [8]) is listed as 68%. Further, the inhibition at 0.1 µM in test [2] was 62%.

Take `Cc1ccc2c(c1)c1c(n2/C=C(\CC(=O)O)c2ccc(F)cc2)CCN(C)C1` [Compound 209, (E)-4-(2,8-dimethyl-3,4-dihydro-1H-pyrido[4,3-b]indol-5(2H)-yl)-3-(4-fluorophenyl)but-3-enoic acid]: the inhibition at 1 µM at histamine receptor H1 was 9%; in test [1] (setting [5]), 7%; in test [2] (compound at 1 μM), 41%; in test [3] (setting [6]), 30%; in test [4] (setting [7]), 59%.

For the molecule `Cc1ccc2c(c1)c1c(n2CC(C)(O)c2ccc(C)nc2)CCN(C)C1` (stereo not shown) [Compound 52, 1-(1,2,3,4-tetrahydro-2,8-dimethylpyrido[4,3-b]indol-5-yl)-2-(6-methylpyridin-3-yl)propan-2-ol], the inhibition at 1 µM at histamine receptor H1 turned out to be 46%; in test [1] (setting [5]) it was 12%; in test [2] (compound at 1 μM), 37%; in test [3] (setting [6]), 84%; in test [4] (setting [7]), 104%.

`CCC(O)(Cn1c2c(c3cc(Cl)ccc31)CN(C)CC2)c1ccc(F)cc1` (stereo not shown) [Compound 78, 1-(8-chloro-1,2,3,4-tetrahydro-2-methylpyrido[4,3-b]indol-5-yl)-2-(4-fluorophenyl)butan-2-ol]: the “Histamine Binding (1 μM) H1, percent inhibition of specific binding” value on histamine receptor H1 amounted to 69%. The inhibition at 1 µM was determined as 52% at histamine receptor H1; 27% in test [1] (setting [5]); 101% in test [2] (compound at 1 μM); 91% in test [3] (setting [6]); 87% in test [4] (setting [7]). The “Inhibition of ligand binding, Dopamine D2L” value in test [1] (setting [8]) worked out at 33%. In addition, the inhibition at 0.1 µM in test [2] came out at 78%.

For `C/C=C/C(=C\n1c2c(c3cc(Cl)ccc31)CN(C)CC2)c1ccc(F)cc1` [Compound 204, 8-chloro-5-((1E,3E)-2-(4-fluorophenyl)penta-1,3-dienyl)-2-methyl-2,3,4,5-tetrahydro-1H-pyrido[4,3-b]indole], the inhibition at 1 µM was 55% at histamine receptor H1; 87% in test [1] (setting [5]); 102% in test [2] (compound at 1 μM); 99% in test [3] (setting [6]); 86% in test [4] (setting [7]).

In the case of `CN1CCc2c(c3cc(Cl)ccc3n2CC(C)(O)c2ccc(F)cc2)C1` (stereo not shown) [Compound 45, 1-(8-chloro-1,2,3,4-tetrahydro-2-methylpyrido[4,3-b]indol-5-yl)-2-(4-fluorophenyl)propan-2-ol], the “Histamine Binding (1 μM) H1, percent inhibition of specific binding” value on histamine receptor H1 was 73%. Besides, the inhibition at 1 µM at histamine receptor H1 is 65%; in test [1] (setting [5]), 34%; in test [2] (compound at 1 μM) it was 94%; in test [3] (setting [6]), 89%; in test [4] (setting [7]), 109%. Besides, the inhibition at 0.1 µM in test [2] was 48%.

In the case of `C/C(=C/n1c2c(c3cc(Cl)ccc31)CN(C)CC2)c1ccccc1F` [Compound 212, (Z)-8-chloro-5-(2-(2-fluorophenyl)prop-1-enyl)-2-methyl-2,3,4,5-tetrahydro-1H-pyrido[4,3-b]indole], the inhibition at 1 µM at histamine receptor H1 is 70%; in test [1] (setting [5]), 32%; in test [2] (compound at 1 μM), 97%; in test [3] (setting [6]), 88%; in test [4] (setting [7]), 105%.

`CN1CCc2c(c3cc(Cl)ccc3n2CC(O)(c2ccc(F)cc2)C2CCC2)C1` (stereo not shown) [Compound 177, 2-(8-chloro-2-methyl-3,4-dihydro-1H-pyrido[4,3-b]indol-5(2H)-yl)-1-cyclobutyl-1-(4-fluorophenyl)ethanol]: the inhibition at 1 µM on histamine receptor H1 was 83%; in test [1] (setting [5]) it was 33%; in test [2] (compound at 1 μM), 100%; in test [3] (setting [6]) it was 96%; in test [4] (setting [7]), 94%.

As for `Cc1ccc(C(C)(O)Cn2c3c(c4cc(Cl)ccc42)CN(C)CC3)cn1` (stereo not shown) [Compound 47, 1-(8-chloro-1,2,3,4-tetrahydro-2-methylpyrido[4,3-b]indol-5-yl)-2-(6-methylpyridin-3-yl)propan-2-ol], the inhibition at 1 µM on histamine receptor H1 was found to be 33%; in test [1] (setting [5]), 7%; in test [2] (compound at 1 μM), 39%; in test [3] (setting [6]), 81%; in test [4] (setting [7]) it was 106%.
